Experimental data: PubChem BioAssay AID248 (DTP/NCI, 2004)
“And” between values parts separate entries of the source, which are not always exact repeats. Identical values can stand only once. Toxic doses and inconclusive results are not listed.

Test system: L1210 leukemia ip in BDF1 mice, survival T/C
Assay: NCI In Vivo Anticancer Drug Screen. Data for tumor model L1210 Leukemia (intraperitoneal) in B6D2F1 (BDF1) mice
Conditions: endpoint: mean survival time, higher = longer survival
How it was run: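 Transplanted-tumor mice were given test agent; controls received vehicle only. Survival readings from the two groups were divided (treated over control).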

[1] = dose: 100.0 mg/kg/injection, schedule: Q01DX001 (ip), vehicle: Klucel (hydroxypropylcellulose) (HPC)
[2] = dose: 100.0 mg/kg/injection, schedule: Q01DX009 (ip), vehicle: saline with Tween-80
[3] = dose: 200.0 mg/kg/injection, schedule: Q01DX009 (ip), vehicle: saline with Tween-80
[4] = dose: 75.0 mg/kg/injection, schedule: Q01DX001 (ip), vehicle: saline
[5] = dose: 200.0 mg/kg/injection, schedule: Q01DX001 (ip), vehicle: saline
[6] = dose: 100.0 mg/kg/injection, schedule: Q01DX001 (ip), vehicle: gum acacia
[7] = dose: 100.0 mg/kg/injection, schedule: Q04DX003 (ip), vehicle: gum acacia
[8] = dose: 200.0 mg/kg/injection, schedule: Q01DX001 (ip), vehicle: gum acacia
[9] = dose: 400.0 mg/kg/injection, schedule: Q01DX001 (ip), vehicle: gum acacia
[10] = dose: 25.0 mg/kg/injection, schedule: Q01DX009 (ip), vehicle: saline
[11] = dose: 50.0 mg/kg/injection, schedule: Q01DX009 (ip), vehicle: saline
[12] = dose: 100.0 mg/kg/injection, schedule: Q01DX009 (ip), vehicle: saline

N#Cc1nc2c(nc1C#N)CCCC2
T/C (dose: 6.25 mg/kg/injection, schedule: Q04DX003 (ip), vehicle: Klucel (hydroxypropylcellulose) (HPC)): 98 % of control
T/C (dose: 12.5 mg/kg/injection, schedule: Q04DX003 (ip), vehicle: Klucel (hydroxypropylcellulose) (HPC)): 95 % of control
T/C (dose: 25.0 mg/kg/injection, schedule: Q01DX001 (ip), vehicle: Klucel (hydroxypropylcellulose) (HPC)): 96 % of control
T/C (dose: 25.0 mg/kg/injection, schedule: Q04DX003 (ip), vehicle: Klucel (hydroxypropylcellulose) (HPC)): 97 % of control and 102 % of control
T/C (dose: 50.0 mg/kg/injection, schedule: Q01DX001 (ip), vehicle: Klucel (hydroxypropylcellulose) (HPC)): 105 % of control
T/C [1]: 104 % of control

O=C(NCCCCCCNC(=O)NCc1ccc(Cl)c(Cl)c1)NCc1ccc(Cl)c(Cl)c1
T/C (dose: 100.0 mg/kg/injection, schedule: Q01DX009 (ip), vehicle: other): 97 % of control
T/C (dose: 200.0 mg/kg/injection, schedule: Q01DX009 (ip), vehicle: other): 86 % of control
T/C (dose: 400.0 mg/kg/injection, schedule: Q01DX009 (ip), vehicle: other): 95 % of control

COc1ccc2[nH]c3cc(Cl)ccc3c(=O)c2c1
T/C [2]: 91 % of control
T/C [3]: 88 % of control
T/C (dose: 400.0 mg/kg/injection, schedule: Q01DX009 (ip), vehicle: saline with Tween-80): 86 % of control

O=C1Cc2ccccc2C(=O)N1Nc1ccccc1
T/C (dose: 22.0 mg/kg/injection, schedule: Q01DX001 (ip), vehicle: saline): 96 % of control
T/C (dose: 33.0 mg/kg/injection, schedule: Q01DX001 (ip), vehicle: saline): 91 % of control
T/C (dose: 50.0 mg/kg/injection, schedule: Q01DX001 (ip), vehicle: saline): 93 % of control and 101 % of control
T/C [4]: 95 % of control
T/C (dose: 100.0 mg/kg/injection, schedule: Q01DX001 (ip), vehicle: saline): 101 % of control
T/C [5]: 95 % of control
T/C (dose: 400.0 mg/kg/injection, schedule: Q01DX001 (ip), vehicle: saline): 95 % of control

C=C1CC(CCCCCC2CC(=C)C(=O)O2)OC1=O (configuration not stated)
T/C (dose: 12.5 mg/kg/injection, schedule: Q04DX002 (ip), vehicle: saline): 94 % of control
T/C (dose: 25.0 mg/kg/injection, schedule: Q04DX002 (ip), vehicle: saline): 94 % of control
T/C (dose: 50.0 mg/kg/injection, schedule: Q04DX002 (ip), vehicle: saline): 102 % of control

O=C1c2ccccc2C(=O)N1CCOc1ccc([N+](=O)[O-])cc1Cl
T/C (dose: 50.0 mg/kg/injection, schedule: Q04DX003 (ip), vehicle: Klucel (hydroxypropylcellulose) (HPC)): 102 % of control
T/C (dose: 100.0 mg/kg/injection, schedule: Q04DX003 (ip), vehicle: Klucel (hydroxypropylcellulose) (HPC)): 101 % of control
T/C (dose: 200.0 mg/kg/injection, schedule: Q04DX003 (ip), vehicle: Klucel (hydroxypropylcellulose) (HPC)): 100 % of control

O=C(Nc1ccc(Cl)c(Cl)c1)OCC1CC2C=CC1C2 (configuration not stated)
T/C (dose: 100.0 mg/kg/injection, schedule: Q01DX009 (ip), vehicle: Klucel (hydroxypropylcellulose) (HPC)): 100 % of control
T/C (dose: 200.0 mg/kg/injection, schedule: Q01DX009 (ip), vehicle: Klucel (hydroxypropylcellulose) (HPC)): 97 % of control
T/C (dose: 400.0 mg/kg/injection, schedule: Q01DX009 (ip), vehicle: Klucel (hydroxypropylcellulose) (HPC)): 106 % of control

CCCCOC(=O)c1ccc(OC(=O)NC(C)(C)C)cc1
T/C (dose: 25.0 mg/kg/injection, schedule: Q04DX003 (ip), vehicle: gum acacia): 102 % of control and 90 % of control
T/C (dose: 50.0 mg/kg/injection, schedule: Q04DX003 (ip), vehicle: gum acacia): 94 % of control and 102 % of control
T/C [6]: 105 % of control
T/C [7]: 98 % of control and 100 % of control
T/C [8]: 95 % of control
T/C [9]: 103 % of control

CCOC(=O)C(C(=O)OCC)C1c2ccccc2C(=O)N(CCN(C)C)c2ccccc21 (configuration not stated)
T/C [10]: 96 % of control
T/C [11]: 99 % of control
T/C [12]: 98 % of control

[O-][N+](=Nc1ccc(Cl)cc1)c1ccc(Cl)cc1
T/C [6]: 92 % of control
T/C [7]: 97 % of control
T/C [8]: 93 % of control
T/C (dose: 200.0 mg/kg/injection, schedule: Q04DX003 (ip), vehicle: gum acacia): 87 % of control
T/C [9]: 92 % of control
T/C (dose: 400.0 mg/kg/injection, schedule: Q04DX003 (ip), vehicle: gum acacia): 91 % of control

CC(=O)NC1CCC(C(C)(C)C)CC1 (configuration not stated)
T/C [2]: 102 % of control
T/C (dose: 100.0 mg/kg/injection, schedule: Q04DX002 (ip), vehicle: Klucel (hydroxypropylcellulose) (HPC)): 93 % of control
T/C [3]: 108 % of control
T/C (dose: 200.0 mg/kg/injection, schedule: Q04DX002 (ip), vehicle: Klucel (hydroxypropylcellulose) (HPC)): 90 % of control
T/C (dose: 400.0 mg/kg/injection, schedule: Q04DX002 (ip), vehicle: Klucel (hydroxypropylcellulose) (HPC)): 103 % of control

COC(=O)C1C(O)C(C)C(=O)C(C)/C=C\C=C(C)C(=O)Nc2c(C)c(OC(C)=O)c3c(c2O)C(=O)C(C)=C2OCOC(=C23)C(C)=CC(C)(O)C(O)C(C)C1O (configuration not stated)
T/C [10]: 96 % of control
T/C [11]: 98 % of control
T/C [12]: 96 % of control
T/C (dose: 200.0 mg/kg/injection, schedule: Q01DX009 (ip), vehicle: saline): 98 % of control

OC1(C#CC#CC2(O)CCCCC2)CCCCC1
T/C (dose: 100.0 mg/kg/injection, schedule: Q04DX003 (ip), vehicle: saline): 92 % of control
T/C (dose: 200.0 mg/kg/injection, schedule: Q04DX003 (ip), vehicle: saline): 98 % of control
T/C (dose: 400.0 mg/kg/injection, schedule: Q04DX003 (ip), vehicle: saline): 93 % of control

Nc1cccc(CC(=O)c2ccccc2)n1
T/C (dose: 5.0 mg/kg/injection, schedule: Q01DX001 (ip), vehicle: saline): 97 % of control
T/C (dose: 10.0 mg/kg/injection, schedule: Q01DX001 (ip), vehicle: saline): 106 % of control
T/C (dose: 20.0 mg/kg/injection, schedule: Q01DX001 (ip), vehicle: saline): 100 % of control
T/C (dose: 40.0 mg/kg/injection, schedule: Q01DX001 (ip), vehicle: saline): 97 % of control
T/C (dose: 80.0 mg/kg/injection, schedule: Q01DX001 (ip), vehicle: saline): 100 % of control
T/C [5]: 106 % of control

CC(C)=NNC(=O)c1ccc[n+](Cc2ccccc2)c1
T/C [4]: 102 % of control
T/C (dose: 150.0 mg/kg/injection, schedule: Q01DX001 (ip), vehicle: saline): 98 % of control
T/C (dose: 300.0 mg/kg/injection, schedule: Q01DX001 (ip), vehicle: saline): 105 % of control

CC(C)(NC(=O)NCCCl)C(=O)O
T/C [1]: 105 % of control
T/C (dose: 200.0 mg/kg/injection, schedule: Q01DX001 (ip), vehicle: Klucel (hydroxypropylcellulose) (HPC)): 96 % of control
T/C (dose: 400.0 mg/kg/injection, schedule: Q01DX001 (ip), vehicle: Klucel (hydroxypropylcellulose) (HPC)): 94 % of control

CC1CC(C)(C)[N+](C)=C(CC(O)(c2ccccc2)c2ccccc2)O1 (configuration not stated)
T/C (dose: 6.25 mg/kg/injection, schedule: Q04DX003 (ip), vehicle: saline sonified): 95 % of control
T/C (dose: 12.5 mg/kg/injection, schedule: Q04DX003 (ip), vehicle: saline sonified): 104 % of control
T/C (dose: 25.0 mg/kg/injection, schedule: Q04DX003 (ip), vehicle: saline sonified): 92 % of control

CC(=O)C1CC2C=CCC(C2)C1 (configuration not stated)
T/C (dose: 100.0 mg/kg/injection, schedule: Q01DX001 (ip), vehicle: saline with Tween-80): 95 % of control
T/C (dose: 200.0 mg/kg/injection, schedule: Q01DX001 (ip), vehicle: saline with Tween-80): 90 % of control
T/C (dose: 400.0 mg/kg/injection, schedule: Q01DX001 (ip), vehicle: saline with Tween-80): 96 % of control

CC1CN1C(=O)OCCOC(=O)N1CC1C (configuration not stated)
T/C (dose: 200.0 mg/kg/injection, schedule: Q01DX Z (ip), vehicle: saline): 108 % of control
T/C (dose: 444.0 mg/kg/injection, schedule: Q01DX009 (ip), vehicle: saline): 104 % of control
T/C (dose: 450.0 mg/kg/injection, schedule: Q01DX Z (ip), vehicle: saline): 188 % of control
T/C (dose: 666.0 mg/kg/injection, schedule: Q01DX009 (ip), vehicle: saline): 107 % of control
T/C (dose: 675.0 mg/kg/injection, schedule: Q01DX Z (ip), vehicle: saline): 195 % of control
T/C (dose: 750.0 mg/kg/injection, schedule: Q01DX001 (ip), vehicle: saline): 117 % of control
T/C (dose: 1000.0 mg/kg/injection, schedule: Q01DX009 (ip), vehicle: saline): 115 % of control
T/C (dose: 1500.0 mg/kg/injection, schedule: Q01DX001 (ip), vehicle: saline): 106 % of control
T/C (dose: 1500.0 mg/kg/injection, schedule: Q01DX009 (ip), vehicle: saline): 96 % of control
